Laboratory results from EPA's ToxRefDB 2.

Legend:
[1] = system: dog; settings: Prenatal developmental toxicity study, beagle, Oral, Feed, dose end: 56 GD
[2] = system: rat; settings: Peri- and post-natal toxicity study (Segment III), sprague dawley, Oral, Gavage/Intubation, dose end: 40 PND
[3] = system: rat; settings: Combined chronic toxicity/carcinogenicity, wistar, Oral, Feed, dose end: 104 week
[4] = system: dog; settings: Chronic toxicity, beagle, Oral, Feed, dose end: 104 week
[5] = system: rabbit; settings: Prenatal developmental toxicity study, new zealand white, Oral, Gavage/Intubation, dose end: 18 GD
[6] = system: rat; settings: Prenatal developmental toxicity study, sprague dawley, Oral, Gavage/Intubation, dose end: 15 GD
[7] = system: rabbit; settings: Prenatal developmental toxicity study, new zealand white, Oral, Gavage/Intubation, dose end: 28 GD
[8] = system: rabbit; settings: Prenatal developmental toxicity study, new zealand white, Oral, Gavage/Intubation, dose end: 28 GD; remark: listed apart in the source
[9] = system: rat; settings: Prenatal developmental toxicity study, sprague dawley, Oral, Gavage/Intubation, dose end: 19 GD
[10] = system: mouse; settings: Combined chronic toxicity/carcinogenicity, b6c3f1, Oral, Feed, dose end: 105 week
[11] = system: rat; settings: Combined chronic toxicity/carcinogenicity, fischer, Oral, Feed, dose end: 104 week
[12] = system: rat; settings: Subchronic oral toxicity in rodents, fischer, Gavage/Intubation, dose end: 13 week
[13] = system: mouse; settings: Subchronic oral toxicity in rodents, b6c3f1, Feed, dose end: 13 week
[14] = system: mouse; settings: Subchronic oral toxicity in rodents, b6c3f1, Gavage/Intubation, dose end: 13 week
[15] = system: rat; settings: Subchronic oral toxicity in rodents, fischer, Feed, dose end: 13 week
[16] = group: developmental, developmental / offspring survival late / [other] / [other] + systemic / in life observation / body weight / offspring (pup) weight
[17] = group: maternal, reproductive / offspring survival early / dead fetuses / dead fetuses
[18] = group: developmental, developmental / developmental landmark / vaginal opening / vaginal opening
[19] = group: maternal, reproductive / reproductive performance / estrous cycle / abnormal + reproductive / reproductive performance / estrous cycle / corpora lutea
[20] = group: parental, systemic / clinical chemistry / estradiol / estradiol + systemic / organ weight / kidney / absolute + systemic / organ weight / ovary / …
[21] = group: cholinesterase, cholinesterase / cholinesterase / cholinesterase / plasma cholinesterase (che)
[22] = group: systemic, systemic / hematology / erythrocyte (rbc) count differential / erythrocyte (rbc) + systemic / hematology / reticulocyte / reticulocyte + …
[23] = group: systemic, systemic / in life observation / food consumption / food consumption + systemic / in life observation / clinical signs / hindlimb strength…
[24] = group: cholinesterase, cholinesterase / cholinesterase / cholinesterase / cholinesterase (che)
[25] = group: developmental, developmental / developmental malformation / liver / discolored
[26] = group: maternal, systemic / in life observation / body weight / body weight + systemic / in life observation / body weight / body weight gain
[27] = group: developmental, developmental / developmental malformation / bone / absent + developmental / developmental malformation / bone / bipartite ossification + …
[28] = group: maternal, systemic / pathology gross / liver / enlarged + systemic / in life observation / clinical signs / salivation
[29] = group: developmental, developmental / developmental malformation / bone / delayed ossification + developmental / developmental malformation / bone / hemicentric…
[30] = group: maternal, systemic / in life observation / body weight / body weight gain + systemic / in life observation / food consumption / food consumption
[31] = group: maternal, systemic / in life observation / body weight / body weight gain + systemic / in life observation / food consumption / food consumption + …
[32] = group: developmental, developmental / developmental malformation / trunk / omphalocele + systemic / in life observation / body weight / fetal weight
[33] = group: maternal, reproductive / reproductive performance / resorptions / resorptions + systemic / in life observation / body weight / body weight + systemic…
[34] = group: developmental, developmental / developmental malformation / bone / fused cartilage + systemic / in life observation / body weight / fetal weight
[35] = group: systemic, systemic / pathology microscopic / adrenal gland / pigmentation
[36] = group: systemic, systemic / pathology microscopic / ovary / hyperplasia + systemic / in life observation / clinical signs / grip strength + systemic / organ …
[37] = group: systemic, systemic / hematology / hemoglobin (hgb) / hemoglobin (hgb) + systemic / in life observation / clinical signs / grip strength + systemic / …
[38] = group: systemic, systemic / pathology microscopic / adrenal gland / vacuolization cytoplasmic + systemic / pathology microscopic / ovary / hypertrophy
[39] = group: systemic, systemic / hematology / hemoglobin (hgb) / hemoglobin (hgb) + systemic / hematology / mean corpuscular hemoglobin concentration (mchc) / …
[40] = group: systemic, systemic / pathology microscopic / adrenal gland / vacuolization cytoplasmic
[41] = group: systemic, systemic / in life observation / body weight / body weight + systemic / in life observation / body weight / body weight gain + systemic / in…

C1N2CN3CN1CN(C2)C3 [Methenamine]
LEL [1, 16]: 31 mg/kg/day | LOAEL [1, 16]: > 31 mg/kg/day | NEL [1, 16]: 15 mg/kg/day | NOAEL [1, 16]: ≥ 31 mg/kg/day | LEL [1, 17]: 31 mg/kg/day | LOAEL [1, 17]: > 31 mg/kg/day | NEL [1, 17]: 15 mg/kg/day | NOAEL [1, 17]: ≥ 31 mg/kg/day

CC(C)OC(=O)c1ccc(O)cc1 [Isopropylparaben]
LEL [2, 18]: 250 mg/kg/day | LOAEL [2, 18]: > 1000 mg/kg/day | NEL [2, 18]: 62.5 mg/kg/day | NOAEL [2, 18]: ≥ 1000 mg/kg/day | LEL [2, 19]: 1000 mg/kg/day | LOAEL [2, 19]: > 1000 mg/kg/day | NEL [2, 19]: 250 mg/kg/day | NOAEL [2, 19]: ≥ 1000 mg/kg/day | LEL [2, 20]: 1000 mg/kg/day | LOAEL [2, 20]: > 1000 mg/kg/day | NEL [2, 20]: 250 mg/kg/day | NOAEL [2, 20]: ≥ 1000 mg/kg/day

CNC(=O)Oc1cc(C)c(SC)c(C)c1 [Methiocarb]
LEL [3, 21]: 30 mg/kg/day | LOAEL [3, 21]: > 30 mg/kg/day | NEL [3, 21]: 10 mg/kg/day | NOAEL [3, 21]: ≥ 30 mg/kg/day | LOAEL ([3]; group: systemic, systemic / hematology / erythrocyte (rbc) count differential / erythrocyte (rbc)): 10 mg/kg/day | LEL ([3]; group: systemic, systemic / hematology / erythrocyte (rbc) count differential / erythrocyte (rbc) + systemic / hematology / reticulocyte / reticulocyte): 10 mg/kg/day | NEL [3, 22]: 3.4 mg/kg/day | NOAEL [3, 22]: 3.4 mg/kg/day | LEL [4, 21]: 0.75 mg/kg/day | LOAEL [4, 21]: 0.75 mg/kg/day | NEL [4, 21]: < 0.75 mg/kg/day | NOAEL [4, 21]: < 0.75 mg/kg/day | LOAEL ([4]; group: systemic, systemic / in life observation / clinical signs / tremors): 12 mg/kg/day | LEL ([4]; group: systemic, systemic / in life observation / food consumption / food consumption): 3 mg/kg/day | NEL [4, 23]: 0.75 mg/kg/day | NOAEL [4, 23]: 3 mg/kg/day | LEL [5, 24]: 10 mg/kg/day | LOAEL [5, 24]: 10 mg/kg/day | NEL [5, 24]: 3 mg/kg/day | NOAEL [5, 24]: 3 mg/kg/day | LEL [5, 25]: 10 mg/kg/day | LOAEL [5, 25]: > 10 mg/kg/day | NEL [5, 25]: 3 mg/kg/day | NOAEL [5, 25]: ≥ 10 mg/kg/day | LEL [5, 26]: 10 mg/kg/day | LOAEL [5, 26]: 10 mg/kg/day | NEL [5, 26]: 3 mg/kg/day | NOAEL [5, 26]: 3 mg/kg/day

C[N+]12CN3CN(CN(C3)C1)C2.[Cl-]
LEL [6, 27]: 1500 mg/kg/day | LOAEL [6, 27]: 1500 mg/kg/day | NEL [6, 27]: < 1500 mg/kg/day | NOAEL [6, 27]: < 1500 mg/kg/day | LOAEL ([6]; group: maternal, systemic / in life observation / body weight / body weight + systemic / pathology gross / liver / enlarged): 3000 mg/kg/day | NOAEL ([6]; group: maternal, systemic / in life observation / body weight / body weight + systemic / pathology gross / liver / enlarged + reproductive / reproductive …): 1500 mg/kg/day | LEL [6, 28]: 1500 mg/kg/day | NEL [6, 28]: < 1500 mg/kg/day

O.O.[Cu] [Copper(II) hydroxide]
LEL [7, 29]: 18 mg/kg/day | LOAEL [7, 29]: 18 mg/kg/day | NEL [7, 29]: 9 mg/kg/day | NOAEL [7, 29]: 9 mg/kg/day | LEL [7, 30]: 9 mg/kg/day | LOAEL [7, 30]: 9 mg/kg/day | NEL [7, 31]: 6 mg/kg/day | NOAEL [7, 31]: 6 mg/kg/day | LEL [8, 32]: 30 mg/kg/day | LOAEL [8, 32]: > 30 mg/kg/day | NEL [8, 32]: 15 mg/kg/day | NOAEL [8, 32]: ≥ 30 mg/kg/day | LOAEL [8, 33]: > 30 mg/kg/day | NEL [8, 33]: 7.5 mg/kg/day | NOAEL [8, 33]: ≥ 30 mg/kg/day | LEL ([8]; group: maternal, systemic / in life observation / body weight / body weight + systemic / in life observation / body weight / body weight gain + systemic / in…): 15 mg/kg/day

CC(C)c1ccc2cc(C(C)C)ccc2c1 [2,6-Diisopropylnaphthalene]
LEL [9, 34]: 500 mg/kg/day | LOAEL [9, 34]: 500 mg/kg/day | NEL [9, 34]: 150 mg/kg/day | NOAEL [9, 34]: 150 mg/kg/day | LEL [9, 30]: 150 mg/kg/day | LOAEL [9, 30]: 150 mg/kg/day | NEL [9, 31]: 50 mg/kg/day | NOAEL [9, 31]: 50 mg/kg/day

Cc1ccc(OP(=O)(Oc2ccc(C)cc2)Oc2ccc(C)cc2)cc1.Cc1cccc(OP(=O)(Oc2cccc(C)c2)Oc2cccc(C)c2)c1.Cc1ccccc1OP(=O)(Oc1ccccc1C)Oc1ccccc1C [Tricresyl phosphate]
LEL [10, 24]: 7 mg/kg/day | LOAEL [10, 24]: 7 mg/kg/day | NEL [10, 24]: < 7 mg/kg/day | NOAEL [10, 24]: < 7 mg/kg/day | LEL [10, 35]: 8 mg/kg/day | LOAEL [10, 35]: 8 mg/kg/day | NEL [10, 35]: < 8 mg/kg/day | NOAEL [10, 35]: < 8 mg/kg/day | LEL [11, 24]: 4 mg/kg/day | LOAEL [11, 24]: > 30 mg/kg/day | NEL [11, 24]: < 4 mg/kg/day | NOAEL [11, 24]: ≥ 30 mg/kg/day | LEL ([11]; group: systemic, systemic / pathology microscopic / ovary / hyperplasia): 7 mg/kg/day | LOAEL [11, 36]: > 30 mg/kg/day | NEL [11, 36]: 4 mg/kg/day | NOAEL [11, 36]: ≥ 30 mg/kg/day | LEL [12, 24]: 50 mg/kg/day | LOAEL [12, 24]: > 800 mg/kg/day | NEL [12, 24]: < 50 mg/kg/day | NOAEL [12, 24]: ≥ 800 mg/kg/day | LOAEL [12, 37]: > 800 mg/kg/day | NOAEL [12, 37]: ≥ 800 mg/kg/day | LEL [12, 38]: 50 mg/kg/day | NEL [12, 38]: < 50 mg/kg/day | LEL [13, 24]: 45 mg/kg/day | LOAEL [13, 24]: > 900 mg/kg/day | NEL [13, 24]: < 45 mg/kg/day | NOAEL [13, 24]: ≥ 900 mg/kg/day | LOAEL [13, 39]: > 900 mg/kg/day | NOAEL [13, 39]: ≥ 900 mg/kg/day | LEL [13, 40]: 65 mg/kg/day | NEL [13, 40]: < 65 mg/kg/day | LEL [14, 24]: 50 mg/kg/day | LOAEL [14, 24]: > 800 mg/kg/day | NEL [14, 24]: < 50 mg/kg/day | NOAEL [14, 24]: ≥ 800 mg/kg/day | LOAEL [14, 41]: > 800 mg/kg/day | NOAEL [14, 41]: ≥ 800 mg/kg/day | LEL [14, 38]: 50 mg/kg/day | NEL [14, 38]: < 50 mg/kg/day | LEL [15, 24]: 55 mg/kg/day | LOAEL [15, 24]: > 750 mg/kg/day | NEL [15, 24]: < 55 mg/kg/day | NOAEL [15, 24]: ≥ 750 mg/kg/day | LOAEL [15, 41]: > 750 mg/kg/day | NOAEL [15, 41]: ≥ 750 mg/kg/day | LEL [15, 40]: 55 mg/kg/day | NEL [15, 40]: < 55 mg/kg/day
